In patent publication US7511044B2, “Vanilloid receptor ligands and their use in treatments” (Amgen Inc., priority 2004, dated 2009) one finds melting point data, which are given here for 19 compounds.

Molecules are shown by their SMILES.

`CC(=O)Nc1nc2c(Oc3cc(N4CCN(C(C)c5ccccc5F)CC4)ncn3)cccc2s1` (racemic) [Example 1, N-[4-(6-{4-[(1S,1R)-1-(2-Fluoro-phenyl)-ethyl]-piperazin-1-yl}-pyrimidin-4-yloxy)-benzothiazol-2-yl]-acetamide] gave a melting point of 202.6 to 204.3 °C.

Consider `CC(=O)Nc1nc2c(Oc3cc(N4CCN(C(C)c5ccc(F)cc5)CC4)ncn3)cccc2s1` (racemic) [Example 2, N-[4-(6-{4-[(1S,1R)-1-(4-Fluoro-phenyl) -ethyl]-piperazine1-yl}-pyrimidin-4-yloxy)-benzothiazol-2-yl]-acetamide], for which the melting point is 247.3 °C.

Turning to `CC(=O)Nc1nc2c(Oc3cc(N4CCN([C@@H](C)c5ccc(F)cc5)CC4)ncn3)cccc2s1` [Example 21, N-[4-(6-{4-[(1S)-1-(4-Fluoro-phenyl)-ethyl]-piperazine 1-yl}-pyrimidin-4-yloxy)-benzothiazol-2-yl]-acetamide], the melting point was 243.6 to 245.7 °C.

Consider `CC(=O)Nc1nc2c(Oc3cc(N4CCN([C@H](C)c5ccc(F)cc5)CC4)ncn3)cccc2s1` [Example 22, N-[4-(6-{4-[(1R)-1-(4-Fluoro-phenyl)-ethyl]-piperazine1-yl}-pyrimidin-4-yloxy)-benzothiazol-2-yl]-acetamide], for which the melting point fell in the range of 243.8 to 245.9 °C.

With `C[C@@H](c1ccc(F)cc1)N1CCN(c2cc(Oc3cccc4ccc(N)nc34)ncn2)CC1` [Example 24, 8-(6-{4-[(1S)-(4-Fluoro-phenyl)-ethyl]-piperazine-1-yl}-pyrimidin-4-yloxy)-quinolin-2-ylamine], the melting point was found to be 167 °C.

Regarding `C[C@H](c1ccc(F)cc1)N1CCN(c2cc(Oc3cccc4[nH]c(=O)c(N)nc34)ncn2)CC1` [Example 26, 3-Amino-5-(6-{4-[(1R)-1-(4-fluoro-phenyl)-ethyl]-piperazin-1-yl}-pyrimidin-4-yloxy)-1H-quinoxalin-2-one], the melting point was in the range of 292.2 to 293.9 °C.

`C[C@@H](c1ccc(F)cc1)N1CCN(c2cc(Oc3cccc4[nH]c(=O)c(N)nc34)ncn2)CC1` [Example 27, 3-Amino-5-(6-{4-[(1S)-1-(4-fluoro-phenyl)-ethyl]-piperazin-1-yl}-pyrimidin-4-yloxy)-1H-quinoxalin-2-one] yielded a melting point of 294.5 to 295.3 °C.

In the case of `CC(c1ccc(F)cc1)N1CCN(c2cc(Oc3cccc4sc(N)nc34)ncn2)CC1` (stereo not shown) [Example 52, 4-(6-(4-(1-(4-Fluorophenyl)ethyl)piperazin-1-yl)pyrimidin-4-yloxy)benzo[d]thiazol-2-amine], the melting point is 222 °C.

The compound `C[C@@H](c1ccc(F)cc1)N1CCN(c2cc(Oc3cccc4ncc(N)nc34)ncn2)CC1` [Example 54, (S)-8-(6-(4-(1-(4-Fluorophenyl)ethyl)piperazin-1-yl)pyrimidin-4-yloxy)quinoxalin-2-amine] came in with a melting point of 114 °C.

The compound `C[C@H](c1ccc(F)cc1)N1CCN(c2cc(Oc3cccc4ncc(N)nc34)ncn2)CC1` [Example 55, (R)-8-(6-(4-(1-(4-Fluorophenyl)ethyl)piperazin-1-yl)pyrimidin-4-yloxy)quinoxalin-2-amine] returned a melting point of 118 °C.

`C[C@H](c1ccc(F)cc1)N1CCN(c2cc(Oc3cc(F)cc4[nH]c(=O)c(N)nc34)ncn2)CC1` [Example 57, (R)-3-Amino-7-fluoro-5-(6-(4-(1-(4-fluorophenyl)ethyl)piperazin-1-yl)pyrimidin-4-yloxy)quinoxalin-2(1H)-one] gave a melting point of 315 °C.

`C[C@@H](c1ccc(F)cc1)N1CCN(c2cc(Oc3cc(F)cc4[nH]c(=O)c(N)nc34)ncn2)CC1` [Example 58, (S)-3-Amino-7-fluoro-5-(6-(4-(1-(4-fluorophenyl)ethyl)piperazin-1-yl)pyrimidin-4-yloxy)quinoxalin-2(1H)-one] registered a melting point of 288 °C.

Compound `C[C@H](c1ccc(F)cc1)N1CCN(c2cc(Oc3cccc4c3nc(N)c(=O)n4C)ncn2)CC1` [Example 59, (R)-3-Amino-5-(6-(4-(1-(4-fluorophenyl)ethyl)piperazin-1-yl)pyrimidin-4-yloxy)-1-methylquinoxalin-2(1H)-one] showed a melting point of 256 °C.

Consider `CC(c1ccc(F)cc1)N1CCN(c2cc(Oc3cccc4[nH]c(=O)ccc34)ncn2)CC1` (stereo not shown) [Example 61, 5-(6-(4-(1-(4-Fluorophenyl)ethyl)piperazin-1-yl)pyrimidin-4-yloxy)quinoline-2(1H)-one], for which the melting point worked out at 242.2 °C.

Compound `CC(=O)Nc1nc2c(Oc3cc(N4CCN(C(C)c5ccc(F)cc5)CC4)ncn3)cccc2o1` (stereo not shown) [Example 66, N-(4-(6-(4-(1-(4-Fluorophenyl)ethyl)piperazin-1-yl)pyrimidin-4-yloxy)benzo[d]oxazol-2-yl)acetamide] gave a melting point of 199.8 °C.

In the case of `CC(=O)Nc1ccc2cccc(Oc3cc(N4CCN([C@H](C)c5ccc(F)cc5)CC4)ncn3)c2n1` [Example 69, (R)-N-(8-(6-(4-(1-(4-Fluorophenyl)ethyl)piperazin-1-yl)pyrimidin-4-yloxy)quinolin-2-yl)acetamide], the melting point came out at 134 °C.

`CC(c1ccc(F)cc1)N1CCN(c2cc(Oc3cccc4ccncc34)ncn2)CC1` (stereo not shown) [Example 70, 8-(6-(4-(1-(4-Fluorophenyl)ethyl)piperazin-1-yl)pyrimidin-4-yloxy)isoquinoline] gave a melting point of 114 °C.

`CC(c1ccc(F)cc1)N1CCN(c2cc(Oc3cccc4c3NCC(=O)N4)ncn2)CC1` (stereo not shown) [Example 71, 5-(6-(4-(1-(4-Fluorophenyl)ethyl)piperazin-1-yl)pyrimidin-4-yloxy)-3,4-dihydroquinoxalin-2-(1H)-one] had a melting point of 221 °C.

In the case of `CC(c1ccc(F)cc1)N1CCN(c2cc(Oc3cccc4c(=O)[nH]ccc34)ncn2)CC1` (stereo not shown) [Example 72, 5-(6-(4-(1-(4-Fluorophenyl)ethyl)piperazin-1-yl)pyrimidin-4-yloxy)isoquinolin-1(2H)-one], the melting point was found to be 249 °C.

The melting point is the temperature of the solid-liquid transition.
